Assay results published in ChEMBL document CHEMBL2073918, “Effect of modulators on the ATPase activity and vanadate nucleotide trapping of human P-glycoprotein” (Biochem Pharmacol, 1998).

Columns and labels:
[1] = molecular target: T1, ATP-dependent translocase ABCB1 (Homo sapiens, UniProt P08183); assay: TP_TRANSPORTER: inhibition of ATPase activity (Verapamil) in membranes from CEM/VLB100 cells; format: functional, cell membranes, Membrane
[2] = molecular target: T1, ATP-dependent translocase ABCB1; assay: TP_TRANSPORTER: ATP hydrolysis in membranes from CEM/VLB100 cells; format: functional, cell membranes, Membrane

T1 sequence (P08183 whole entry): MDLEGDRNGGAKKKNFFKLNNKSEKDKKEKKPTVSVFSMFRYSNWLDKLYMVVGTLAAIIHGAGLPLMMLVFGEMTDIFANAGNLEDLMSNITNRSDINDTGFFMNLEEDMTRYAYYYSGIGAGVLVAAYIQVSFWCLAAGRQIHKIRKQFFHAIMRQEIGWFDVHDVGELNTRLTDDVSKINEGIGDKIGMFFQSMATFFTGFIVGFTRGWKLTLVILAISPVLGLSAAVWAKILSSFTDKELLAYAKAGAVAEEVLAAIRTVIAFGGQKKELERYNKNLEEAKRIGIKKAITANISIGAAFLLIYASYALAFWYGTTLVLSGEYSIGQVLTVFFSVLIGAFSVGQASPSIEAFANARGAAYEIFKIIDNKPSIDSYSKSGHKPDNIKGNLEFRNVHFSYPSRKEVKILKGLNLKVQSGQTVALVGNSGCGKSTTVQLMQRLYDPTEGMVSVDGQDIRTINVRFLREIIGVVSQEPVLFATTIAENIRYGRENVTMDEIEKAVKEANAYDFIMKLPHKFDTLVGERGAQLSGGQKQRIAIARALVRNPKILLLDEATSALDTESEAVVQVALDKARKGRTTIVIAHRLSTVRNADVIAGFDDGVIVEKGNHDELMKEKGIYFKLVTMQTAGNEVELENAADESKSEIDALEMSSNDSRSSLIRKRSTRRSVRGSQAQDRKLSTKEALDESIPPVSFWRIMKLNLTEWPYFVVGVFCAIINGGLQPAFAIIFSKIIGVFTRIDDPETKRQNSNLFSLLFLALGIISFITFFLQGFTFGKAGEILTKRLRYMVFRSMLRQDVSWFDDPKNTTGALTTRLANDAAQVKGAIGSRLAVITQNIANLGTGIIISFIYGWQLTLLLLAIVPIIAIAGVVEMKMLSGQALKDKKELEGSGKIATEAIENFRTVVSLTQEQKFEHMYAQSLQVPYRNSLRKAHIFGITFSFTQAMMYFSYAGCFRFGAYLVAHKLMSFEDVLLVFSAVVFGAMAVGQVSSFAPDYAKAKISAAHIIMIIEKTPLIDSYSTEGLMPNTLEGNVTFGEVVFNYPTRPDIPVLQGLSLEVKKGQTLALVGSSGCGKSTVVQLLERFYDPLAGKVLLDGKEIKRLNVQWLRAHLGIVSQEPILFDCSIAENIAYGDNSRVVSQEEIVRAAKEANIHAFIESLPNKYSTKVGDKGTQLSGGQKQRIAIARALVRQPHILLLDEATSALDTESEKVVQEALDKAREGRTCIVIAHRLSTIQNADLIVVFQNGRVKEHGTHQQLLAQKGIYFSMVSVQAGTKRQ

Ki [1] [nM]	SMILES	Activity [2]
2100	COC(=O)[C@@H]1C2CC3c4[nH]c5ccccc5c4CCN3CC2CC[C@@H]1OC(=O)c1cc(OC)c(OC)c(OC)c1 (some centres not stated) [TRIMETHOXYBENZOYLYOHIMBINE]	
	CCC12C=CCN3CC[C@@]4(c5ccc(OC)cc5N(C)[C@H]4[C@@](O)(C(=O)OC)[C@@H]1OC(C)=O)[C@@H]32 (some centres not stated) [VINDOLINE]	is not a substrate [-]
